pIC50, pKd: −log10 of the molar value.
How the values were obtained:
[1] = molecular target: T1, HRAS^G12V-GTP / scFv RASdm interaction (Homo sapiens, UniProt P01112, G12V); assay: AlphaScreen of interaction between GST-HRAS^G12V-GTPγS and His-tagged scFv RASdm; type: biochemical; conditions: dose-response Alpha assay
T1 construct: made in house; host or cells: E. coli C41(DE3)
Excerpt: An AlphaScreen assay was established with GST-HRAS^G12V-GTP bound to GST-beads and HIS-tagged scFv RASdm bound to nickel-beads. The Alpha assay comprised interaction of anti-RAS and HRAS proteins and signal from the acceptor beads generated after excitation of the donor nickel-beads (depicted in Supplementary Fig. 3A). […] The interactions were optimized for protein concentrations linked to the donor and acceptor beads (Supplementary Fig. 3C,D). The interaction of HRAS^G12V-GTP with the dematured anti-RAS scFv was robust (Supplementary Fig. 3D) yielding Z factors of 0.74–0.85 being considered suitable for high throughput screen. […]
The AlphaScreen assay (Perkin Elmer) was performed in a 8 μl final volume in 1536-well white microtiter plates (Greiner). […] Exposure of the reaction to direct light was avoided and the emission of light from the acceptor beads was measured in the EnVision plate reader (Perkin Elmer) and analyzed using the EnVision manager software. […]
Panel A: AlphaLISA glutathione (GSH) acceptor beads were used to capture GST-HRAS loaded with GTPγS (Ag). […] Following incubation, nickel (Ni) chelate donor AlphaLISA beads were added and the chemiluminescence signal detected on an PE Envision plate reader. […]

[2] = molecular target: T2, non-mutated anti-RAS scFv / HRAS^G12V interaction (Homo sapiens, UniProt P01112, G12V); assay: Alpha assay of non-mutated anti-RAS scFv with HRAS^G12V (identical protocol, unpublished data); type: biochemical
T2 construct: made in house; host or cells: E. coli C41(DE3)
Excerpt: We have used the RAS protein as a target for this method as this was previously regarded as undruggable[9]–[11]. We provide further evidence of RAS druggability and that antibody binding sites can be employed to select small molecules for drug discovery as starting chemical matter for medicinal chemistry drug development campaigns. Compound A (Fig. 3A) is a heterocycle that would require crystal soaking to facilitate structure-based drug design to place this on a formal drug development programme. […] Further, the low Kd in SPR (Fig. 4), lack of inhibitory effect in Alpha controls (Fig. 3) argue against chemical reactivity as the reason for the Alpha assay inhibition. […] The low binding strength of these initial library hits, in turn resulting from the small size of the chemical library used, would preclude meaningful cell-assays at this stage.

HRAS-GPPNHP = HRAS-GPPNHP (Homo sapiens, UniProt P01112); assay: SPR of compound on biotinylated RAS isoform (streptavidin chip); type: binding
KRAS^G12V-GPPNHP = KRAS^G12V-GPPNHP (Homo sapiens, UniProt P01116, G12V); assay: as above; type: binding
NRAS-GPPNHP = NRAS-GPPNHP (Homo sapiens, UniProt P01111); assay: as above; type: binding
dopamine D1 receptor = conditions: cited from earlier work
[3] = system: KRAS, HRAS and NRAS-GTP proteins; assay: SPR over the three RAS isoforms (average / overall)
Method: Accordingly, we used SPR to determine direct RAS-binding and because the anti-RAS intracellular antibody interacts with the three isoforms of activated RAS[3], we assessed if the compounds also show a pan-RAS binding.
The protein extracts were loaded with GPPNHP (a non-hydrolysable GTP analogue) as described[19] and biotinylated by incubation with BirA overnight at 4 °C. […] SPR experiments were performed using BIAcore T100 (GE Healthcare). […] The chip was prepared with 3 × 30 s injections of 1 M NaCl/50 mM NaOH at 10 µL/min flow rate, before biotinylated RAS proteins were injected at 25 µg/mL with 10 µL/min flow rate until 4000–5000 RU protein was captured.

Sequence of HRAS-GPPNHP (P01112 1-166): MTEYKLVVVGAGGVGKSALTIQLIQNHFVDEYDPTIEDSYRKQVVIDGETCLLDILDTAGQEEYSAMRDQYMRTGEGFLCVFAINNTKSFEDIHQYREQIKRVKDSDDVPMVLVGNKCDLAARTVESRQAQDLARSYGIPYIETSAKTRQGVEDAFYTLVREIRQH
Sequence of NRAS-GPPNHP (P01111 1-166): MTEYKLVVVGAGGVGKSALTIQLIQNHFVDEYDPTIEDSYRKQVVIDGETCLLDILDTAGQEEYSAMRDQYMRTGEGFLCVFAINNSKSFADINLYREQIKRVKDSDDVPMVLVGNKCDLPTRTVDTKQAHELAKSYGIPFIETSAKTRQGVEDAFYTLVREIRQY
T1 sequence (P01112 whole entry G12V): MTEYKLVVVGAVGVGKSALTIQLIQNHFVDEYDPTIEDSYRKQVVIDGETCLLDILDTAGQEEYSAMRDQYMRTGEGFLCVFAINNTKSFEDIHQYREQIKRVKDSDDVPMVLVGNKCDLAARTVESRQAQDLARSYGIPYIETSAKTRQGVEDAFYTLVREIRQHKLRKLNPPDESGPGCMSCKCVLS
T2 sequence (P01112 whole entry G12V): as above

Structure (SMILES)	pIC50 [1]	inhibition of interaction between non-mutated anti-RAS scFv and HRAS^G12V [2]	Rmax (HRAS-GPPNHP; Figure 4E)	pKd (HRAS-GPPNHP; HRAS)	Rmax (KRAS^G12V-GPPNHP; Figure 4D)	pKd (KRAS^G12V-GPPNHP; KRAS)	Rmax (NRAS-GPPNHP; Figure 4F)	pKd (NRAS-GPPNHP; NRAS)	dopamine D1 receptor activity (dopamine D1 receptor)	response in SPR analysis ([3]; KRAS, HRAS and NRAS proteins)	pKd ([3]; read-out: average Kd, average over KRAS, HRAS and NRAS)
CCCn1c(=O)c2[nH]c(C3CCCC3)nc2n(CCCOC(=O)c2ccc(S(=O)(=O)F)cc2)c1=O [Compound A, 8-Cyclopentyl-3-(3-((4-(fluorosulfonyl)benzoyl)oxy)propyl)-1-propylxanthine]	5.70	no inhibition									
CN1Cc2ccccc2C2c3cccc4[nH]cc(c34)CC21 (stereo not drawn) [compound B, 4,6,6a,7,8,12b-hexahydro-7-methylindolo(4,3-ab)-phenanthridine]	5.22		3.5 RU	4.52	6.7 RU	4.33	6.8 RU	4.46	weak dopamine D1 receptor agonist	low response	4.43

Source: article PMC7814043, “Pan RAS-binding compounds selected from a chemical library by inhibiting interaction between RAS and a reduced affinity intracellular antibody” (Scientific Reports, 2021)
